Data: ChEMBL document CHEMBL4219105, “Novel polyamine-based Histone deacetylases-Lysine demethylase 1 dual binding inhibitors” (Bioorg Med Chem Lett, 2018)

Assays:
[1] = molecular target: T1, Lysine-specific histone demethylase 1A/REST corepressor (Homo sapiens, UniProt O60341+Q9P2K3)
Description: (§1) Inhibition of human recombinant LSD1/CoREST3 expressed in Escherichia coli using monomethylatedH3meK4 peptide as substrate preincubated for 15 mins followed by substrate addition measured after 12 mins by fluorescence based assay

HDAC1/REST corepressor 3 [2] = molecular target: T2, HDAC1/REST corepressor 3 (Homo sapiens, UniProt Q13547+Q9P2K3)
Description: (§2) Inhibition of HDAC1/CoREST3 in HEK293 whole cell extract using fluorescent acetylated histone peptide as substrate after 60 mins by fluorescence based assay

[3] = molecular target: T3, Histone deacetylase (Homo sapiens) (UniProt Q13547+O15379+Q9UBN7+Q92769+Q9UQL6+Q8WUI4+Q9BY41+Q96DB2+P56524+Q9UKV0+Q969S8); experiment: Inhibition of HDAC in human MCF7 cell nuclear extract using acetylated lysine as substrate at 70 uM after 1 hr by colorimetric analysis relative to control; type: protein assay
MCF7 [4] = experiment: cells; type: functional, cell-based; conditions: Homo sapiens, MCF7, 24 h
Description: Cytotoxic activity against human MCF7 cells after 24 hrs by MTT assay

MCF7 [5] = experiment: Cytotoxic activity against human MCF7 cells assessed as reduction in cell viability at 70 uM after 24 hrs by MTT assay relative to control; type: functional
[6] = molecular target: T1, Lysine-specific histone demethylase 1A/REST corepressor; remark: listed apart in the source
Description: as §1

HDAC1/REST corepressor 3 [7] = molecular target: T2, HDAC1/REST corepressor 3; remark: listed apart in the source
Description: as §2

MCF7 [8] = experiment: Cytotoxic activity against human MCF7 cells assessed as reduction in cell viability at 4 uM after 24 hrs by MTT assay relative to control; type: functional
[9] = molecular target: T3, Histone deacetylase (Homo sapiens); experiment: Inhibition of HDAC in human MCF7 cell nuclear extract using acetylated lysine as substrate at 17 uM after 1 hr by colorimetric analysis relative to control; type: protein assay
MCF7 [10] = experiment: Cytotoxic activity against human MCF7 cells assessed as reduction in cell viability at 35 uM after 24 hrs by MTT assay relative to control; type: functional
MCF7 [11] = experiment: Cytotoxic activity against human MCF7 cells assessed as reduction in cell viability at 16 uM after 24 hrs by MTT assay relative to control; type: functional

T2 sequence (Q13547 whole entry, other chains not shown): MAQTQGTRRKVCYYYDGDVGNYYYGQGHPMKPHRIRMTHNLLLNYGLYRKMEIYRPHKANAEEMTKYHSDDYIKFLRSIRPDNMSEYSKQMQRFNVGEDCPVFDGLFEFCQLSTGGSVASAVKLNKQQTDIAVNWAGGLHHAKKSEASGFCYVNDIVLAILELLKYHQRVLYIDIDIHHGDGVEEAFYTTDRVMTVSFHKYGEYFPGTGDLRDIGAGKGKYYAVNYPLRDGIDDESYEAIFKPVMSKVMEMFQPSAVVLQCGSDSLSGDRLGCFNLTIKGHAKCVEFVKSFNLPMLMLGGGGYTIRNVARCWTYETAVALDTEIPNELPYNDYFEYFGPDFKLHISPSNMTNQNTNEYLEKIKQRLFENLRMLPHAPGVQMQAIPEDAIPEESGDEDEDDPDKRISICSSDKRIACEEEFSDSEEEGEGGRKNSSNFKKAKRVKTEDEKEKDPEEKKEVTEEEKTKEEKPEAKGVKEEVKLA

IC50 [1]	Ki (HDAC1/REST corepressor 3 [2])	inhibition [3]	IC50 (MCF7 [4])	IC50 [6]	Ki (HDAC1/REST corepressor 3 [7])	inhibition [9]	SMILES	Activity (MCF7 [5])	Activity (MCF7 [8])	Activity (MCF7 [10])	Activity (MCF7 [11])
Nd(Insoluble)	Nd(Insoluble)						Cl.Cl.Cl.N[C@@H]1C[C@H]1c1ccc(NC(=O)CCC(=O)NCCCCCCNCCCCCCCCNCCCCCCNC(=O)c2ccc(NC(=O)CCCCCCC(=O)NO)cc2)cc1				
		35.8%	60.2 µM	2.4 µM	0.0269 µM		Cl.Cl.N[C@@H]1C[C@H]1c1ccc(NC(=O)CCC(=O)NCCCNCCCNC(=O)c2ccc(NC(=O)CCCCCCC(=O)NO)cc2)cc1	52%			
			39.6 µM	3.85 µM	0.0425 µM	50.2%	Cl.Cl.Cl.N[C@@H]1C[C@H]1c1ccc(NC(=O)CCC(=O)NCCCNCCCCNCCCNC(=O)c2ccc(NC(=O)CCCCCCC(=O)NO)cc2)cc1	68.6%	16.3%	52.7%	
							O=C(CCCCCCC(=O)Nc1ccccc1)NO [VORINOSTAT]	56.6%	20.8%		49.3%
